What all share (assay): ITC
What all share (assay type): binding

Assay [1] deals with IGP1^ECD (Arabidopsis thaliana, UniProt F4I3K3). The following applies: 10 mM Bis-Tris pH 6.0, 100 mM NaCl, 25 °C; LRR3-5 groove; 1:1 complex in crystal.
The target of assay [2] is IGP1^ECD (Arabidopsis thaliana, UniProt F4I3K3, W220A). The following applies: 10 mM Bis-Tris pH 6.0, 100 mM NaCl, 25 °C.
Assay [3] concerns the target IGP1^ECD (Arabidopsis thaliana, UniProt F4I3K3, C591A/C592A). The following applies: 10 mM Bis-Tris pH 6.0, 100 mM NaCl, 25 °C.
Assay [4] deals with IGP1^ECD (Arabidopsis thaliana, UniProt F4I3K3, C591D/C592D). The following applies: 10 mM Bis-Tris pH 6.0, 100 mM NaCl, 25 °C.

One may read the Kd as the equilibrium constant for the complex coming apart. A lower Kd goes with higher affinity.

Each structure is given as a SMILES string.

`OC[C@H]1O[C@@H](O[C@H]2[C@H](O)[C@@H](O)[C@H](O[C@H]3[C@H](O)[C@@H](O)C(O)O[C@@H]3CO)O[C@@H]2CO)[C@H](O)[C@@H](O)[C@@H]1O` (stereo partly shown) [CEL3, cellotriose] gave a Kd at IGP1^ECD [1] of about 1610 nM.

Regarding `OC[C@H]1O[C@@H](O[C@H]2[C@H](O)[C@@H](O)[C@H](O[C@H]3[C@H](O)[C@@H](O)[C@H](O[C@H]4[C@H](O)[C@@H](O)C(O)O[C@@H]4CO)O[C@@H]3CO)O[C@@H]2CO)[C@H](O)[C@@H](O)[C@@H]1O` (stereo partly shown) [CEL4, cellotetraose], the Kd on IGP1^ECD [2] was about 18.6 µM; at IGP1^ECD [3], about 2250 nM; on IGP1^ECD [4], about 17.9 µM.
